Laboratory results: PMC8370991, “Structural basis for the inhibition of HTLV-1 integration inferred from cryo-EM deltaretroviral intasome structures” (Nature Communications, 2021)

Target: T1, recombinant HTLV-1 IN (Human T-cell leukemia virus 1, UniProt P03362)
T1 construct: made in house
Experiment: In vitro integration strand transfer assay with HTLV-1 IN
Format: biochemical
Details: INSTI at 634 nM
Experimental: We used in vitro strand transfer assays to screen this small molecule library for its ability to inhibit recombinant HTLV-1 IN. The enzyme was incubated with an oligonucleotide vDNA donor mimic in the presence or absence of INSTIs and was allowed to react with a supercoiled plasmid mimicking target DNA. During the screening, the concentration of each compound was adjusted to 634 nM to provide optimal resolution of efficacy between well- and under-performing compounds.
The donor vDNA that mimics the 3′-processed LTR of HTLV-1 or STLV-1 DNA was preassembled by annealing the U5_S20Q_UP and U5_S20Q_B or MarB43_U5_S30UP or MarB43_U5_S30B oligonucleotides, respectively (Supplementary Table 4) in 100 mM Tris pH 7.4, 400 mM NaCl. For HTLV-1 IN, strand transfer reactions were conducted in a solution of 24.3 mM PIPES pH 6.0, 138.4 mM NaCl, 16.6 mM MgCl2, 5.8 μM ZnCl2, 12.7 mM DTT, 0.53 μM donor DNA and 4 μg of HTLV-1 IN[9],[39]. In brief, the reaction was incubated at RT for 15 min in the presence of an INSTI or dimethyl sulfoxide (DMSO) control and the reaction was started by the addition of 300 ng of pGEM-9Zf(-) supercoiled plasmid DNA. The reaction was incubated for 1 h at 37 °C and stopped by adding 0.5% SDS and 25 mM ethylenediaminetetraacetic acid (EDTA), pH 8.0.
Proteins were degraded by incubation with 30 μg of proteinase K (Roche) at 37 °C for 1 h. DNA was precipitated at −20 °C overnight in the presence of ethanol supplemented with 20 μg of glycogen and then resuspended in 1.5× agarose loading dye. The DNA products were separated by electrophoresis through 1.5% agarose gel and stained with ethidium bromide and imaged using the BioRad GelDox XR + imager. The data were analysed and the IC50 calculated as previously described. In brief, the DNA band that corresponds to the concerted integration product was quantified by densitometry in ImageLab 4.1 (Bio-Rad). All experiments were done in triplicate. Quantified data points were fitted to dose–response curves in Prism 9. The cumulative standard deviation for each drug was calculated as an average of the upper limit and lower limit values: Lowerlimit=IC50/10^logSE(IC50) Upperlimit=IC50×10^logSE(IC50)

T1 sequence (P03362 1168-1462): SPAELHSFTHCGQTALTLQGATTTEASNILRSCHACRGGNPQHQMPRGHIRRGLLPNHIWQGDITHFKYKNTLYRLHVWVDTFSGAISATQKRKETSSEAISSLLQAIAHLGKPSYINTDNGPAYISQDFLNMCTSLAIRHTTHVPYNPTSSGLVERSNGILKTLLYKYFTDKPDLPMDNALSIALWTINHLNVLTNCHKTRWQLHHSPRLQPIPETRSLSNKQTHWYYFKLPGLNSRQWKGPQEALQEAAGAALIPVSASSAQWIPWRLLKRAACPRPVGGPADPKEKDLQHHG

Structure (SMILES)	HTLV-1 IN strand transfer activity (No drug = 100) (Replicate 1) [%]	HTLV-1 IN strand transfer activity (No drug = 100) (Replicate 2) [%]	HTLV-1 IN strand transfer activity (No drug = 100) (Replicate 3) [%]
O=C(NNC(=O)c1cccc(O)c1O)c1cccc(O)c1O [XZ15, N'-(2,3-dihydroxybenzoyl)-2,3-dihydroxybenzohydrazide]	99.084	89.5316	92.2753
O=C(NNC(=O)c1cccc(O)c1O)c1ccccc1O [XZ45, 2,3-dihydroxy-N'-(2-hydroxybenzoyl)benzohydrazide]	95.0641	107.975	100.183
O=C(NN1Cc2ccc(O)c(O)c2C1=O)c1cccc(O)c1O [XZ49, N-(6,7-dihydroxy-1-oxoisoindolin-2-yl)-2,3-dihydroxybenzamide]	94.3672	88.3747	109.808
O=C1c2ccc(O)c(O)c2C(=O)N1Cc1ccc(F)c(Cl)c1 [XZ89, 2-(3-chloro-4-fluorobenzyl)-4,5-dihydroxyisoindoline-1,3-dione]	87.9286	85.883	98.5818
O=C1c2c(ccc(O)c2O)CN1Cc1ccc(F)c(Cl)c1 [XZ90, 2-(3-chloro-4-fluorobenzyl)-6,7-dihydroxyisoindolin-1-one]	47.6981	83.7072	92.5665
Cc1c2c(c(O)c(=O)n1C)C(=O)N(Cc1ccc(F)c(Cl)c1)C2=O [XZ202, 2-(3-chloro-4-fluorobenzyl)-7-hydroxy-4,5-dimethyl-1H-pyrrolo[3,4-c]pyridine-1,3,6(2H,5H)-trione]	98.3269	98.0594	97.9688
COC(=O)CCc1c2c(c(O)c(=O)n1C(C)C)C(=O)N(Cc1ccc(F)c(Cl)c1)C2=O [XZ220, methyl 3-(2-(3-chloro-4-fluorobenzyl)-7-hydroxy-5-isopropyl-1,3,6-trioxo-2,3,5,6-tetrahydro-1H-pyrrolo[3,4-c]pyridin-4-yl)propanoate]	93.628	97.195	85.9754
CN(C)C(=O)c1nc(O)c(O)c2c1CCN(Cc1ccc(F)c(Cl)c1)C2=O [XZ235, 6-(3-chloro-4-fluorobenzyl)-3,4-dihydroxy-N,N-dimethyl-5-oxo-5,6,7,8-tetrahydro-2,6-naphthyridine-1-carboxamide]	50.5732	55.8637	62.5799
Cc1c2c(c(O)c(=O)n1Cc1ccc(F)c(Cl)c1)C(=O)N(C)C2=O [XZ242, 5-(3-chloro-4-fluorobenzyl)-7-hydroxy-2,4-dimethyl-1H-pyrrolo[3,4-c]pyridine-1,3,6(2H,5H)-trione]	115.41	99.061	100.661
CCN1CCn2c(c3c(c(O)c2=O)C(=O)N(Cc2ccc(F)c(Cl)c2)C3=O)C1=O [XZ256, 9-(3-chloro-4-fluorobenzyl)-2-ethyl-7-hydroxy-3,4-dihydropyrrolo[3',4':3,4]pyrido[1,2-a]pyrazine-1,6,8,10(2H,9H)-tetraone]	112.467	93.5244	114.376
CN(C)S(=O)(=O)c1cc(O)c(O)c2c1CN(Cc1ccc(F)c(Cl)c1)C2=O [XZ259, 2-(3-chloro-4-fluorobenzyl)-6,7-dihydroxy-N,N-dimethyl-1-oxoisoindoline-4-sulfonamide]	63.0889	67.971	68.9907
